Experiments:
[1] = Photolysis with UV lamp, photolysis rate measured by HPLC; type: physicochemical; details: buffer, pH 7.4
Protocol: Photolysis was conducted by the known method (Takaoka, K. et al., Bioorganic & Medicinal Chemistry Letters, 13, 965-970, 2003), and the obtained samples were quantified by HPLC or a glutamate uptake assay.
The caged inhibitor was dissolved to 100 μM in a PBS(+) solution [140 mM NaCl, 5 mM KCl, 8 mM Na2HPO4, 1.5 mM KH2PO4, 1 mM CaCl2, 1 mM MgCl2, pH 7.4], and a 300 μL portion of the solution was placed in a quartz cuvette with a 1 mm optical path and situated at a location at 10 cm from a UV lamp (Spectroline ENF-260C/J, product of Spectronics Co.), and then covered with a black box and irradiated with 365 nm UV rays at room temperature for 1-120 minutes. The luminous energy under these conditions was approximately 0.5 J/cm^2 with 10 minutes of irradiation. The irradiated sample was quantified by HPLC.
The sample was subjected to UV irradiation for a prescribed period and then analyzed by HPLC [column: SP-120-5-ODS-AP (Daiso CO.); eluent, CH3CN:H2O:TFA=32:68:0.1 or gradient from CH3CN:H2O:TFA=32:68:0.1 to 50:50:0.1], and the concentration was determined from the ratio of UV absorption at 254 nm with respect to an internal substance (3′,4′-dimethoxyacetophenone, 10 μM). The percentage with respect to the concentration prior to irradiation was calculated and graphed, and the half-life was determined.

EAAT1-5 subtypes = details: cited from earlier work; for inhibitory activity compared with L-TBOA: prior application of the inventors
glutamate receptor = details: prior art statement; cited from earlier work

Row | Compound | half-life (photolysis, decay of caged compound) [1] | inhibitory activity compared with L-TBOA (EAAT1-5 subtypes) | also measured
1 | O=C(O)COc1ccc2c(COC(=O)N[C@H](C(=O)O)[C@H](OCc3ccccc3)C(=O)O)cc(=O)oc2c1 [5a, (2S,3S)-3-benzyloxy-N-[7-(carboxymethoxy)coumarin-4-ylmethoxy]carbonylaspartate] | 19 min |  | 
2 | O=C(O)COc1cc2oc(=O)cc(COC(=O)N[C@H](C(=O)O)[C@H](OCc3ccccc3)C(=O)O)c2cc1OCC(=O)O [5b, (2S,3S)-3-benzyloxy-N-[6,7-bis(carboxymethoxy)coumarin-4-ylmethoxy]carbonylaspartate] | 7.8 min |  | 
3 | N[C@H](C(=O)O)[C@H](OCc1ccccc1)C(=O)O [L-TBOA, L-threo-β-benzyloxyaspartate] |  |  | blocker activity on glutamate transporters (EAAT1-5 subtypes; prior art statement): Particularly powerful blocker activity; affinity for glutamate receptor compared to existing inhibitors (glutamate receptor): lower affinity for glutamate receptor compared to existing inhibitors
4 | COc1ccc(C(=O)Nc2cccc(CO[C@H](C(=O)O)[C@H](N)C(=O)O)c2)cc1 [PMB-TBOA] |  | more powerful inhibitory activity than L-TBOA | 
5 | N[C@H](C(=O)O)[C@H](OCc1cccc(NC(=O)c2ccc(C(F)(F)F)cc2)c1)C(=O)O [TFB-TBOA] |  | more powerful inhibitory activity than L-TBOA | 

— patent US7622499B2, “β-Benzyloxyaspartate derivatives with photosensitive groups” (Suntory Holdings Limited, priority 2003, dated 2009)
